Results: patent publication US20180021315A1, “METHODS OF TREATING HEARING DISORDERS” (Wayne State University, priority 2016, published 2018)
Entries after “also recorded” stand apart in the source; their conditions may differ.

What was measured:
DCN, IC and AC neurons = assay: Neurophysiological recordings of DCN, IC and AC after blast exposure; type: in vivo, rat; conditions: blast-exposed rats, 56 mg/kg i.p.
Description: Rats were exposed or sham-exposed to a blast shockwave. To determine whether TNF-α is involved in blast-induced tinnitus, the rats were injected once daily for 5 days with 3,6′-dithiothalidomide starting 7 days after blast exposure. Behavioral testing and ABR recordings started 1 day after drug injection and lasted for three weeks.
Neurophysiological recordings of the left DCN, right IC and right AC were performed 3 weeks after drug or vehicle injection. Each rat was anesthetized with a mixture of air (1 liter/min) and isoflurane (5% v/v) and then secured in a stereotaxic frame with hollow ear bars (model 1530; David Kopf Instruments, Tujunga, Calif.). A mixture of air (1 liter/min) and isoflurane (1.75-2.5% v/v) was used to maintain anesthesia during surgery and recordings. In order to maintain the rat's body temperature at 37° C., a thermostat-controlled blanket (Harvard Apparatus, Holliston, Mass.) was used during the procedure. For electrophysiological recording, electrode arrays were inserted into the DCN, IC, and AC. Prior to insertion, the electrode probe was dipped into a 3% DiI solution (1,10-dioctadecyl-3,3,30,30-tetramethylindocarbocyanine perchlorate; Invitrogen, Carlsbad, Calif.) prepared with dimethylformamide to label the electrode insertion tracks. By using a micromanipulator (model 1460-61; David Kopf Instruments), an eight-shank, 32-channel electrode probe (NeuroNexus Technologies, Ann Arbor, Mich.) was inserted into the DCN and the probe was inserted into a depth of […] below the DCN surface, corresponding to the fusiform cell layer. For the IC, a two-shank 32-Channel (NeuroNexus) probe was inserted 20° off of the sagittal plane and 30° off of the horizontal plane through the occipital cortex into the IC. To implant in the AC, a 32 (4×8) microwire array was implanted 2.7 to 5.8 mm posterior to the bregma, and ˜0.8-1.0 mm from the cortical surface. After probe placement, the brain was covered with agarose to avoid tissue swelling and drying. The probe connector was connected to a real-time signal processing system (RZ2, TDT) with a 25 kHz sampling rate and a 100-3000 Hz bandpass filter. Spontaneous activity, frequency tuning curves (FTCs), and acoustic stimulation with tone and noise bursts (BBN) was recorded. Spontaneous single- and multi-unit spikes were recorded twice; one 5 min prior to and one 5 min after frequency tuning curve (FTC) construction. Each spontaneous recording period lasted 5 min. FTCs were obtained to determine the frequency representation of each implanted electrode in the DCN, IC and AC using tone sweeps (50 ms in duration, 2-44 kHz, incremental steps of 2 dB, sound level range of 0-85 dB SPL).

TNF-α = assay: Blast-induced TNF-α protein levels in auditory brain regions (ELISA and Western blot); type: in vivo, rat
Description: The therapeutic drug used was 3,6′-dithiothalidomide, which was synthesized according to a published procedure to greater than 99.8% chemical purity (Baratz et al., 2011; W. Luo et al., 2008). The drug was freshly prepared prior to each study. 3,6′-dithiothalidomide was prepared as a suspension in 1% carboxymethyl cellulose to provide a final concentration of 28 or 56 mg/kg (0.1 mL/10 g and 0.1 mL/100 g body weight injection in mice and rats, respectively), and was administered intraperitoneally (i.p.). These concentrations of 3,6′-dithiothalidomide are equimolar to 25 and 50 mg/kg of thalidomide.
Each of the rats was subjected to blast exposure in the left ear using a shock tube (ORA Inc.) located at the Wayne State University Bioengineering Center. The blast exposure of each rat was performed under anesthesia with a mixture of air (1 liter/min) and isoflurane (5% v/v). The rat was placed on supportive netting with a metal surround and secured on a pole with its head facing the oncoming shockwave. During blast exposure, the rat's right ear was occluded with a silicone earplug (Mack's; McKeon Products, Warren, Mich.), followed by application of mineral oil to seal any remaining openings. The average energy under 10 kHz measured at 22 psi was equivalent to 150 kPa or 197.5 dB SPL. After blast exposure, each rat was transferred to a polycarbonate cage.
Two exposed groups received either 56 mg/kg 3,6′-dithiothalidomide i.p. or vehicle for two days starting on the same day of the blast exposure. Another two exposed groups received 56 mg/kg 3,6′-dithiothalidomide i.p. or vehicle treatment for five days starting on the day of the blast exposure. Two more exposed groups received 56 mg/kg 3,6′-dithiothalidomide i.p. or vehicle treatment for five days starting on the fifth day after blast exposure. On the last day of the drug/vehicle injection, brain samples were collected. ELISA and Western blot was performed to determine the effects of blast and 3,6′-dithiothalidomide treatment on TNF-α protein levels.

O=C1NC(=S)CCC1N1C(=O)c2ccccc2C1=S (centres unmarked) [3,6′-dithiothalidomide]
neuronal firing synchrony (correlogram ratio) (DCN, IC and AC neurons; DCN, IC and AC, FIGS. 22A-22C): significantly reduced neuronal firing synchrony
spontaneous bursting rate in the DCN (DCN, IC and AC neurons; FIG. 20A): reduced bursting rates in blast-exposed animals to the control level
spontaneous firing rate in the DCN (DCN, IC and AC neurons; FIG. 20B): reduced firing rates in blast-exposed animals to the control level
spontaneous bursting rate in the AC (DCN, IC and AC neurons; FIG. 21A): reduced bursting rates in blast-exposed animals relative to vehicle
spontaneous firing rate in the AC (DCN, IC and AC neurons; FIG. 21B): reduced firing rates in blast-exposed animals to the control level
TNF-α protein levels in AC, ELISA (TNF-α; blast-exposed rat AC, 56 mg/kg i.p., FIG. 10): reduced TNF-α protein levels
TNF-α protein levels in DCN, ELISA (TNF-α; blast-exposed rat DCN, 56 mg/kg i.p., FIG. 11): reduced TNF-α protein levels
TNF-α protein levels in IC, ELISA (TNF-α; blast-exposed rat IC, 56 mg/kg i.p., FIG. 12): reduced TNF-α protein levels
statistical significance of the reduction of TNF-α protein levels in IC (TNF-α; blast-exposed rat IC, FIG. 12): did not achieve statistical significance
translational/posttranslational increase in the TNF-α protein level (TNF-α; blast-exposed rats): cannot block such an increase
reduction in TNF-α protein levels in DCN vs corresponding vehicle group (TNF-α; group treated five days starting on the day of blast (5 Days), P<0.05): statistical significance
reduction in TNF-α protein levels in AC vs corresponding vehicle group (TNF-α; group treated five days starting on the fifth day after blast (10 Days), P<0.05): statistical significance
statistical significance of the reduction of TNF-α protein levels in AC and DCN (TNF-α; rat AC and DCN, vs vehicle, P<0.05): reached statistical significance; also recorded: significant reduction
TNF-α protein levels after blast exposure (TNF-α; rat AI, DCN and IC, 56 mg/kg i.p., 2, 5 and 10 days after blast, FIGS. 10-13): partially reduced TNF-α protein levels
